Measurements reported in article PMC12615753, “Glutathione as a taste modulator: molecular mechanisms of interaction with umami and sweet taste receptors” (Food Chemistry: Molecular Sciences, 2025).

Molecular target: T1, hTAS1R1 H71Y/rTAS1R3 (UniProt Q7RTX1+Q923K1, H71Y)
T1 construct: UniProtKB number Q7RTX1–1); The cDNA coding region of rTAS1R3 was synthesized with optimized-codon usage for human expression; expressed in transfected cells; host or cells: HEK293T/17
T1 sequence (Q7RTX1 21-841 H71Y): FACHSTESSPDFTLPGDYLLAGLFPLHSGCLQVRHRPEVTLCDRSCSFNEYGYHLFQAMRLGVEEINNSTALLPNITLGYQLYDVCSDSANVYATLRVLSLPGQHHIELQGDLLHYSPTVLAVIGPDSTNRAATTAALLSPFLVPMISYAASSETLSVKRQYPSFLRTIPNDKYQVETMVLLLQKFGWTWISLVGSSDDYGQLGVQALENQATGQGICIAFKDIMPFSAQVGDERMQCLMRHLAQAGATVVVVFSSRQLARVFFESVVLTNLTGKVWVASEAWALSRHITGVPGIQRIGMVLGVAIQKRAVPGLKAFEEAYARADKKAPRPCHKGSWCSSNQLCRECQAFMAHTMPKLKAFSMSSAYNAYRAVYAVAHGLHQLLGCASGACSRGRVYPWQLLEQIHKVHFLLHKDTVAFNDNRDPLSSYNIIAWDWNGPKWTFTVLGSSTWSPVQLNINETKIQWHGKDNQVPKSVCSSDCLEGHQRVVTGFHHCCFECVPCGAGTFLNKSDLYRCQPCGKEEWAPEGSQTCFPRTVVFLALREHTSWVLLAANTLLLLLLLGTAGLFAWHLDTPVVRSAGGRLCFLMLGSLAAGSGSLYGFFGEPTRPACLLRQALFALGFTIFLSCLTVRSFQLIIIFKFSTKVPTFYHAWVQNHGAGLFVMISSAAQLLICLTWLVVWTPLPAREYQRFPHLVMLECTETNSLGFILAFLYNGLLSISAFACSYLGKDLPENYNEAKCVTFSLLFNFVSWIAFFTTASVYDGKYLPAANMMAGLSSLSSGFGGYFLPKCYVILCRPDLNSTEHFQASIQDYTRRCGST
T1 sequence (Q923K1 21-858): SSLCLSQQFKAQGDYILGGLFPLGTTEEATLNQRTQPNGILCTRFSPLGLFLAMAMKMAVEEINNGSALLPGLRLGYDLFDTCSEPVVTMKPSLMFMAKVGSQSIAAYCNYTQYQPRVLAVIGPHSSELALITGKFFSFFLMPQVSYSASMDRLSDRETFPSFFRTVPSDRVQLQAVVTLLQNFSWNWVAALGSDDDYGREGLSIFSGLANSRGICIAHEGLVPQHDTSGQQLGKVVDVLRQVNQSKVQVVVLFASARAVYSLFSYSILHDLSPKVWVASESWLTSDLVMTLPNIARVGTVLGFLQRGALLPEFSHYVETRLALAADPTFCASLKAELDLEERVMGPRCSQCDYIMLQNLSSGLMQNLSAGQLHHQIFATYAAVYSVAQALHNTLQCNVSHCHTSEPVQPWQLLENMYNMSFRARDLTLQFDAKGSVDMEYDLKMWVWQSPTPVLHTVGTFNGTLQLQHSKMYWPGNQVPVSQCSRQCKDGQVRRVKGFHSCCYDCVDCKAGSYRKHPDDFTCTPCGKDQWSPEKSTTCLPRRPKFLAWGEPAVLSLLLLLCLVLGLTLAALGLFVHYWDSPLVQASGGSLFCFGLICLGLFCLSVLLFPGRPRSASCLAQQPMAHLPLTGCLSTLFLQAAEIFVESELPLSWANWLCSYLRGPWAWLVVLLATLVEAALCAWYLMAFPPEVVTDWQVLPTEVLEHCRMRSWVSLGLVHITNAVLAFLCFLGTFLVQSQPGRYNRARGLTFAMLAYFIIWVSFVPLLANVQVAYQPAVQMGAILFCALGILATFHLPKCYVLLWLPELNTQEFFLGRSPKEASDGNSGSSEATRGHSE
Test: cell-based
Assay type: cell-based, human, rat
Source text: Chimeric Gα proteins, such as Gα16Gust44, Gα16Gi3 or Gα15i2, are widely used in the functional expression of TAS1R receptors ([Backes et al., 2015]; [Suess et al., 2015]; [Toda et al., 2021], [Toda et al., 2013], [Toda et al., 2018]; [Zhang et al., 2008]). Chimeric Gα15i2 (([Toda et al., 2013]), Supplementary data) was generated by replacing the last five residues of the C-terminal tail of rat Gα15i2 (EINLL) (UniProt number G3V6N8; https://www.uniprot.org/uniprot/) with the counterpart sequence from human GNAI2 (DCGLF) (UniProt number P04899-1) and cloning into the pcDNA3.1/Hygro vector (Invitrogen, Thermo Fisher Scientific, Illkirch, France) between the HindIII and NotI restriction sites, resulting in the plasmid pcDNA3.1-Gα15i2. Chimeric Gα16Gust44 construct have already been reported ([Raliou et al., 2011]). Briefly, Gα16Gust44 was generated by replacing the C-terminal of Gα16 with the C-terminal 44 residues of gustducin. As previously described, hTAS1R1 was amplified from human fungiform papillae cDNA and cloned and inserted into pcDNA3 (Invitrogen), generating pcDNA3-TAS1R1-WT (wild-type) ([Raliou et al., 2011]). […] The cDNA coding region of rTAS1R3 was synthesized with optimized-codon usage for human expression (Genewiz) and was cloned and inserted into the mammalian pcDNA4/myc-HisA (Invitrogen) expression vector between the EcoRI and NotI restriction sites, resulting in the plasmid pcDNA4-rTAS1R3. […] The sequence integrity of all the plasmid constructs was verified via automated DNA sequencing (Genewiz).
The hTAS1R1 mutants were co-expressed with the rTAS1R3 subunit in HEK293 cells. […] As a control, the functionality of the mutated receptors was checked after stimulation with S807 (Fig. S8), which interacts with TAS1R1-TMD ([Zhang et al., 2008]).

SMILES: N[C@@H](CCC(=O)N[C@@H](CS)C(=O)NCC(=O)O)C(=O)O [GSH, γ-L-glutamyl-L-cysteinyl-glycine]
- EC50: 12.4 mM
- effect of the added compound (1 mM) on the response to L-Glu (H71Y): did not affect
- Max ∆F/F0 (H71Y, GSH): 0.65 ± 0.11
- R1 = mutant EC50/WT EC50 (H71Y, GSH): 4.9
